The target of one data set is F508del-CFTR (Homo sapiens (Human), UniProt P13569, DEL508-508). The data set can be described thus: Membrane potential optical (fluorescent voltage sensing dye, FLIPR III) HTS assay for F508del-CFTR modulators. The class given is cell-based. The text has this:
Membrane Potential Optical Methods for Assaying Properties of F508del-CFTR Modulators
The assay utilizes fluorescent voltage sensing dyes to measure changes in membrane potential using a fluorescent plate reader (e.g., FLIPR III, Molecular Devices, Inc.) as a readout for increase in functional F508del in NIH 3T3 cells.
5A-A1. Identification of F508Del-CFTR Modulators
To identify modulators of F508del, a fluorescence based HTS assay format was developed. This HTS assay utilizes fluorescent voltage sensing dyes to measure changes in membrane potential on the FLIPR III as a measurement for increase in gating (conductance) of F508del NIH 3T3 cells.
(in mM) NaCl 160, KCl 4.5, CaCl2 2, MgCl2 1, HEPES 10, pH 7.4 with NaOH, Glucose 10.
Chloride salts in Bath Solution #1 (above) are substituted with gluconate salts.
NIH3T3 mouse fibroblasts stably expressing F508del are used for optical measurements of membrane potential. The cells are maintained at 37° C. in 5% CO2 and 90% humidity in Dulbecco's modified Eagle's medium supplemented with 2 mM glutamine, 10% fetal bovine serum, 1×NEAA, β-ME, 1×pen/strep, and 25 mM HEPES in 175 cm^2 culture flasks. For all optical assays, the cells were seeded at 12,000 cells/well in 384-well matrigel-coated plates and cultured for 18-24 hrs at 37° C. for the potentiator assay. For the correction assays, the cells are cultured at 37° C. with and without compounds for 18-24 hours.

In the next data set the target is human PXR (Homo sapiens (Human), UniProt O75469). The data set can be described thus: PXR assay (PXR mediated CYP3A4 induction, DPX-2 cell line). As to conditions: DPX-2 cells, 48 hours, 0.1 to 60 μM. The data set is classed as cell-based. The method, then: 5D. Experimental Protocol for PXR Assay
Chain of human PXR (O75469 whole entry): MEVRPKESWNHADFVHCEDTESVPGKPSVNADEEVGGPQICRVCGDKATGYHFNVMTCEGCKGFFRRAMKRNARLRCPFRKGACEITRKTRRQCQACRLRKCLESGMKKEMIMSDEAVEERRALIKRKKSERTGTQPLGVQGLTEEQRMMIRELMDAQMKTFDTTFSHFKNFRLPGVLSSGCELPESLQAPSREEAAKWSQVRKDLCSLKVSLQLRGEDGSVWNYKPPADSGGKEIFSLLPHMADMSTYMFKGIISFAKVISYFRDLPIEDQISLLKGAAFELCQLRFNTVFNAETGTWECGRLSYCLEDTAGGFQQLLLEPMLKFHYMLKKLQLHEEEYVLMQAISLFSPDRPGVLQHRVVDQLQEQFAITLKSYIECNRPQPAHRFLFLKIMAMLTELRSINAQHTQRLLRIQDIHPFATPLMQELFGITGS
The propensity for PXR mediated CYP3A4 induction is assessed using the DPX-2 cell line in vitro. This cell line, which has been licensed from Puracyp Inc. was derived from HepG2 cells and has been stably transfected with genes encoding human PXR as well as a modified luciferase reporter linked to the CYP3A4 promoter region and related distal and proximal enhancers.
The assay is run in 384 well format and each test article is administered in 11 doses ranging from 0.1 to 60 μM. On day 1, DPX-2 cells which have previously been expanded in-house and cryopreserved are thawed and seeded in tissue culture plates. The following day, media is changed and cells are cultured in media containing test article, vehicle control or the positive control compound, the clinically validated CYP3A4 inducer rifampicin. Cells are cultured in the presence of test article for 48 hours and then cell viability is assessed using fluorescence based assay (Cell Titer-Fluor, Promega) with an EnVision Plate Reader (PerkinElmer). Subsequently, CYP3A4 transactivation, which is proportional to luciferase activity, is measured by reading luminescense using the Promega One-Glo reagent system using the same plate reader.
Data processing within the Genedata software package allows reporting of max fold induction compared to vehicle control, an EC50 value for CYP3A4 inducers and an 11 point-dose response curve.

The mark [1] stands for this setting: F508del NIH 3T3 cells, assay 5A-A1, read-out: CFTRdF508 EC50.
Setting [2] is: Table 9, read-out: CFTR dF508 EC50.

Like-named read-outs stand apart in the source and are kept apart here. Bounds are passed on as bounds.

Chain of F508del-CFTR (P13569 other isoform, or with tags, fused parts or gaps del F508-F508): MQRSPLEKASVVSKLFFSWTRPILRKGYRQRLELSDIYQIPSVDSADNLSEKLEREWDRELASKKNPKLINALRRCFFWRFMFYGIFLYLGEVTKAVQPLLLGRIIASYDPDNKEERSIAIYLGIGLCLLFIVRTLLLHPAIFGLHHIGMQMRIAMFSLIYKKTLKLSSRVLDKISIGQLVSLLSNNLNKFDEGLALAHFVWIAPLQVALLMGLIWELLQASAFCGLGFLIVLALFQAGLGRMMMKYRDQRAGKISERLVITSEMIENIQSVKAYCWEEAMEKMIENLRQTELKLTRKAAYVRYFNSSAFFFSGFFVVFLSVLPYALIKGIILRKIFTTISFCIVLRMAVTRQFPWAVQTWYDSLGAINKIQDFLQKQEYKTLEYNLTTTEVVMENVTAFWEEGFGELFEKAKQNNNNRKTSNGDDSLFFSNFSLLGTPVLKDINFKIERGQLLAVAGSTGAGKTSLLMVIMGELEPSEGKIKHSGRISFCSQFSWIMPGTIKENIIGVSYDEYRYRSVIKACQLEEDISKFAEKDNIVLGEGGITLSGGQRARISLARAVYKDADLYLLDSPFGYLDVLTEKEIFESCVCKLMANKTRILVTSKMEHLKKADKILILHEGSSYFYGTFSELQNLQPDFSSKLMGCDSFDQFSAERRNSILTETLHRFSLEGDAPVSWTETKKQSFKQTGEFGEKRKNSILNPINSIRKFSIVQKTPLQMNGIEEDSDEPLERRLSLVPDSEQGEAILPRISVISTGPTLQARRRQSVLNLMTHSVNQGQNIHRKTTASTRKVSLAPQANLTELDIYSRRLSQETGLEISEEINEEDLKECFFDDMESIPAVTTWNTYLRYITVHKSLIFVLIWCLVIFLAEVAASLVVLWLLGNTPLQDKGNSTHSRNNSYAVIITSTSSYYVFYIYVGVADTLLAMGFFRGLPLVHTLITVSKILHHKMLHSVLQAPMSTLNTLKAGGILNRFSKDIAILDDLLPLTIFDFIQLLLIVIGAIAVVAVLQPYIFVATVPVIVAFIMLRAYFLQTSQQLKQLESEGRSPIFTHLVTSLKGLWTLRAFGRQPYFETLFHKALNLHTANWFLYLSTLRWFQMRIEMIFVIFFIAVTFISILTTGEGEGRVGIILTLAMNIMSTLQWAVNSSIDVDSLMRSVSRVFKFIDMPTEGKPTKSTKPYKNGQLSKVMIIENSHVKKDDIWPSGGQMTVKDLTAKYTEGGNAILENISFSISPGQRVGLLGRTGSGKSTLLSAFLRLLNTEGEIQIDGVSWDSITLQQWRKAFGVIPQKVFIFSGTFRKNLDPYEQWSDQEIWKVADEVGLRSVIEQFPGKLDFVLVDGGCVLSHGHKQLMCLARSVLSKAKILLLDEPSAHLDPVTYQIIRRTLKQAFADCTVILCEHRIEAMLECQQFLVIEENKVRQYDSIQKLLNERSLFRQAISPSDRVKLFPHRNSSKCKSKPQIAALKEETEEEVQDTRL

One may read the EC50 as the concentration needed to bring the measured effect to its halfway point. Turning to `COc1cccc(S(=O)(=O)NC(=O)c2ccc(-n3ccc(OCC4(C(F)(F)F)CC4)n3)nc2N2C[C@@H](C)CC2(C)C)c1` [Comp. 49, N-(3-methoxyphenyl)sulfonyl-6-[3-[[1-(trifluoromethyl)cyclopropyl]methoxy]pyrazol-1-yl]-2-[(4S)-2,2,4-trimethylpyrrolidin-1-yl]pyridine-3-carboxamide], the EC50 is under 100 nM at F508del-CFTR (setting [1]) and 20 nM at F508del-CFTR (setting [2]). In addition, at human PXR, the “PXR Max Induction (% of rifampicin)” value is on record as 19 % of rifampicin.

Consider `COc1ccc(S(=O)(=O)NC(=O)c2ccc(-n3ccc(OCC4(C(F)(F)F)CC4)n3)nc2N2C[C@@H](C)CC2(C)C)c(OC)c1` [Compound 13, N-(2,4-Dimethoxyphenyl)sulfonyl-6-[3-[[1-(trifluoromethyl)cyclopropyl]methoxy]pyrazol-1-yl]-2-[(4S)-2,2,4-trimethylpyrrolidin-1-yl]pyridine-3-carboxamide], for which the results for the EC50 at F508del-CFTR (setting [1]) and at F508del-CFTR (setting [2]) were 100 to 1000 nM and 110 nM, respectively. The “PXR Max Induction (% of rifampicin)” value on human PXR is listed as 2 % of rifampicin.

On to `COc1ccc(S(=O)(=O)NC(=O)c2ccc(-n3ccc(OCC4(C(F)(F)F)CC4)n3)nc2N2C[C@@H](C)CC2(C)C)c(C)c1` [Comp. 57, N-(4-Methoxy-2-methyl-phenyl)sulfonyl-6-[3-[[1-(trifluoromethyl)cyclopropyl]methoxy]pyrazol-1-yl]-2-[(4S)-2,2,4-trimethylpyrrolidin-1-yl]pyridine-3-carboxamide], for which the EC50 at F508del-CFTR (setting [1]) was under 100 nM; at F508del-CFTR (setting [2]), 80 nM. For the same compound, at human PXR, the “PXR Max Induction (% of rifampicin)” value is on record as 2 % of rifampicin.

On to `Cc1ccccc1S(=O)(=O)NC(=O)c1ccc(-n2ccc(OCC3C(C)(C)C3(C)C)n2)nc1N1C[C@@H](C)CC1(C)C` [Compound 15, N-(o-Tolylsulfonyl)-6-[3-[(2,2,3,3-tetramethylcyclopropyl)methoxy]pyrazol-1-yl]-2-[(4S)-2,2,4-trimethylpyrrolidin-1-yl]pyridine-3-carboxamide], for which the values for the EC50 at F508del-CFTR (setting [1]) and on F508del-CFTR (setting [2]) were under 100 nM and 20 nM, respectively. Further, the “PXR Max Induction (% of rifampicin)” value at human PXR is reported as 0 % of rifampicin.

Take `C[C@@H]1CN(c2nc(-n3ccc(OCC4C[C@@H]5CC[C@@H]4C5)n3)ccc2C(=O)NS(=O)(=O)c2ccccc2)C(C)(C)C1` (stereo partly drawn) [Comp. 40, N-(Benzenesulfonyl)-6-[3-[[(1R,4R)-norbornan-2-yl]methoxy]pyrazol-1-yl]-2-[(4S)-2,2,4-trimethylpyrrolidin-1-yl]pyridine-3-carboxamide]: the values for the EC50 at F508del-CFTR (setting [1]) and on F508del-CFTR (setting [2]) were under 100 nM and 80 nM, respectively. Besides, the “PXR Max Induction (% of rifampicin)” value at human PXR is 2 % of rifampicin.

Regarding `C[C@@H]1CN(c2nc(-n3ccc(O[C@H]4C[C@H]5CC[C@@H]4C5)n3)ccc2C(=O)NS(=O)(=O)c2ccccc2)C(C)(C)C1` [Comp. 39, N-(benzenesulfonyl)-6-[3-[(1R,2S,4S)-norbornan-2-yl]oxypyrazol-1-yl]-2-[(4S)-2,2,4-trimethylpyrrolidin-1-yl]pyridine-3-carboxamide], the figures for the EC50 on F508del-CFTR (setting [1]) and at F508del-CFTR (setting [2]) were under 100 nM and 70 nM, respectively. Moreover, the “PXR Max Induction (% of rifampicin)” value on human PXR is reported as 13 % of rifampicin.

For `C[C@@H]1CN(c2nc(-n3ccc(OCC4CC4)n3)ccc2C(=O)NS(=O)(=O)c2cccnc2N)C(C)(C)C1` [Comp. D, reference compound], the EC50 on F508del-CFTR (setting [2]) amounted to 400 nM. Besides, the “PXR Max Induction (% of rifampicin)” value at human PXR was 20 % of rifampicin.

For `C[C@@H]1CN(c2nc(-n3ccc(OCCC4(C(F)(F)F)CC4)n3)ccc2C(=O)NS(=O)(=O)c2ccccc2Cl)C(C)(C)C1` [Comp. 43, N-(2-chlorophenyl) sulfonyl-6-[3-[2-[1-(trifluoromethyl)cyclopropyl]ethoxy]pyrazol-1-yl]-2-[(4S)-2,2,4-trimethylpyrrolidin-1-yl]pyridine-3-carboxamide], the EC50 was under 100 nM on F508del-CFTR (setting [1]) and 50 nM at F508del-CFTR (setting [2]). Also, on human PXR, the “PXR Max Induction (% of rifampicin)” value was 12 % of rifampicin.

Regarding `Cc1ccccc1S(=O)(=O)NC(=O)c1ccc(-n2ccc(OCCC3(C(F)(F)F)CC3)n2)nc1N1C[C@@H](C)CC1(C)C` [Compound 4, N-(o-Tolylsulfonyl)-6-[3-[2-[1-(trifluoromethyl)cyclopropyl]ethoxy]pyrazol-1-yl]-2-[(4S)-2,2,4-trimethylpyrrolidin-1-yl]pyridine-3-carboxamide], the figures for the EC50 at F508del-CFTR (setting [1]) and on F508del-CFTR (setting [2]) were under 100 nM and 20 nM, respectively. Besides, the “PXR Max Induction (% of rifampicin)” value on human PXR is 4 % of rifampicin.

For the compound `Cc1cccc(S(=O)(=O)NC(=O)c2ccc(-n3ccc(OCC4(C(F)(F)F)CC4)n3)nc2N2C[C@@H](C)CC2(C)C)c1` [Comp. 28, N-(m-Tolylsulfonyl)-6-[3-[[1-(trifluoromethyl)cyclopropyl]methoxy]pyrazol-1-yl]-2-[(4S)-2,2,4-trimethylpyrrolidin-1-yl]pyridine-3-carboxamide], the EC50 at F508del-CFTR (setting [1]) was under 100 nM; at F508del-CFTR (setting [2]), 30 nM. The “PXR Max Induction (% of rifampicin)” value at human PXR was 17 % of rifampicin.

Take `C[C@@H]1CN(c2nc(-n3ccc(OCCC4(C(F)(F)F)CC4)n3)ccc2C(=O)NS(=O)(=O)c2ccc(O)cc2)C(C)(C)C1` [Compound 31, N-(4-Hydroxyphenyl)sulfonyl-6-[3-[2-[1-(trifluoromethyl)cyclopropyl]ethoxy]pyrazol-1-yl]-2-[(4S)-2,2,4-trimethylpyrrolidin-1-yl]pyridine-3-carboxamide]: the EC50 was under 100 nM at F508del-CFTR (setting [1]); 30 nM on F508del-CFTR (Table 7, Compound 1 and metabolites, read-out: CFTRdF508 EC50); 30 nM on F508del-CFTR (setting [2]). Besides, the “PXR Max Induction (% of rifampicin)” value on human PXR is on record as 7 % of rifampicin.

For `Cc1ccccc1S(=O)(=O)NC(=O)c1ccc(-n2ccc(OCC3(C(F)(F)F)CCC3)n2)nc1N1C[C@@H](C)CC1(C)C` [Comp. 58, N-(o-Tolylsulfonyl)-6-[3-[[1-(trifluoromethyl)cyclobutyl]methoxy]pyrazol-1-yl]-2-[(4S)-2,2,4-trimethylpyrrolidin-1-yl]pyridine-3-carboxamide], the values for the concentration for a half-maximal effect (EC50) on F508del-CFTR (setting [1]) and on F508del-CFTR (setting [2]) were under 100 nM and 50 nM, respectively. Further, the “PXR Max Induction (% of rifampicin)” value on human PXR is 4 % of rifampicin.

Consider `C[C@@H]1CN(c2nc(-n3ccc(OCC4(C(F)F)CC4)n3)ccc2C(=O)NS(=O)(=O)c2ccccc2)C(C)(C)C1` [Comp. 55, N-(Benzenesulfonyl)-6-[3-[[1-(difluoromethyl)cyclopropyl]methoxy]pyrazol-1-yl]-2-[(4S)-2,2,4-trimethylpyrrolidin-1-yl]pyridine-3-carboxamide], for which the figures for the EC50 on F508del-CFTR (setting [1]) and at F508del-CFTR (setting [2]) were under 100 nM and 50 nM, respectively. Also, at human PXR, the “PXR Max Induction (% of rifampicin)” value was 22 % of rifampicin.

Take `C[C@@H]1CN(c2nc(-n3ccc(OCC4(C(F)(F)F)CC4)n3)ccc2C(=O)NS(=O)(=O)c2ccccc2F)C(C)(C)C1` [Comp. 50, N-(2-fluorophenyl)sulfonyl-6-[3-[[1-(trifluoromethyl)cyclopropyl]methoxy]pyrazol-1-yl]-2-[(4S)-2,2,4-trimethylpyrrolidin-1-yl]pyridine-3-carboxamide]: the EC50 is under 100 nM on F508del-CFTR (setting [1]) and 30 nM on F508del-CFTR (setting [2]). Besides, the “PXR Max Induction (% of rifampicin)” value on human PXR is on record as 32 % of rifampicin.

`C[C@@H]1CN(c2nc(-n3ccc(OCC4C(C)(C)C4(C)C)n3)ccc2C(=O)NS(=O)(=O)c2ccc(O)cc2)C(C)(C)C1` [Comp. 33, N-(4-Hydroxyphenyl)sulfonyl-6-[3-[(2,2,3,3-tetramethylcyclopropyl)methoxy]pyrazol-1-yl]-2-[(4S)-2,2,4-trimethylpyrrolidin-1-yl]pyridine-3-carboxamide]: the EC50 is under 100 nM on F508del-CFTR (setting [1]) and 80 nM at F508del-CFTR (setting [2]). In addition, at human PXR, the “PXR Max Induction (% of rifampicin)” value is reported as 0 % of rifampicin.

The values are drawn from patent publication US11186566B2, “Modulator of cystic fibrosis transmembrane conductance regulator, pharmaceutical compositions, methods of treatment, and process for making the modulator” (Vertex Pharmaceuticals Incorporated, priority 2016, dated 2021).
